Measured values: patent US6048896A, “4-phenyl-4-oxo-2-butenoic acid derivatives with kynurenine-3-hydroxylase inhibiting activity” (Pharmacia & Upjohn S.p.A., priority 1995, dated 2000)

How the values were obtained:
kynurenine-3-hydroxylase [1] = target: T1, kynurenine-3-hydroxylase (Rattus norvegicus, UniProt O88867); assay: Kynurenine-3-hydroxylase Assay in the Rat Brain; type: biochemical; set-up: from tissue; conditions: rat brain homogenate, 50 μM L-kynurenine, 60 min incubation, pH 7.5; read-out: Enzyme Inhibition (Brain) IC50
T1 sequence (O88867 whole entry): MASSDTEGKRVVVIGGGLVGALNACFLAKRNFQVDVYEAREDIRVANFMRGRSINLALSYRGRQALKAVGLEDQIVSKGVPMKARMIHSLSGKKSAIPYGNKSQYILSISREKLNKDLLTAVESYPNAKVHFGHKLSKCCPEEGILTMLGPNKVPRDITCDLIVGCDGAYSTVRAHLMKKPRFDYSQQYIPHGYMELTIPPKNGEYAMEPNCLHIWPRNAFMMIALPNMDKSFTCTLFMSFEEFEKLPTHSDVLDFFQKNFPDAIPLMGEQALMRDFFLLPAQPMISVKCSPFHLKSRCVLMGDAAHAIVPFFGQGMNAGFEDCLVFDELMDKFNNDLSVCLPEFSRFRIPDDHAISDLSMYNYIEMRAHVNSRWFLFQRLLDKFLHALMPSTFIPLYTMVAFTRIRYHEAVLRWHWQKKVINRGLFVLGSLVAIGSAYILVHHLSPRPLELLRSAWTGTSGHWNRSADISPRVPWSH
Experimental: Kynurenine-3-hydroxylase Assay in the Rat Brain
Brain was homogenized in ice-cold 0.32 M sucrose and centrifuged at 12000×g for 30 min at 4° C. The pellet was washed three times with 0.32 M sucrose by centrifugation and suspended in 0.14 M KCl in 20 mM K-phosphate buffer at pH 7 (1 g tissue in 2 ml buffer).
The reaction mixture contained: 75 μl of suspended homogenate; 100 μl of substrate solution containing 50 mM K-phosphate buffer pH 7.5, 2 mM MgCl2, 0.4 mM NADPH, 50 μM L-kynurenine (final concentration), and 25 μl of different concentrations of inhibitor solutions. The reaction was stopped by addition of 200 μl of 1 M HClO4 after 60 min incubation. L-3-hydroxykynurenine formed was quantified by HPLC with coulometric detection at a working voltage of +0.2 V. The column was a 10 cm C18 reversed phase (3 μm. The mobile phase consisted of 950 ml distilled water, 20 ml acetonitrile, 9 ml triethylamine, 5.9 ml phosphoric acid, 100 mg sodium EDTA and 1.5 g heptanesulfonic acid. The flow rate was 1 ml/min.

kynurenine-3-hydroxylase [2] = target: T1, kynurenine-3-hydroxylase; assay: Kynurenine-3-hydroxylase Assay in the Rat Liver; type: biochemical; set-up: Rat liver mitochondrial extract was used as enzymatic preparation for this assay; from tissue; host or cells: rat liver mitochondrial extract; conditions: rat liver mitochondrial extract, 0.025 mM L-kynurenine, 37° C., 30 min, pH 8.1; read-out: Enzyme Inhibition (Liver) IC50
Experimental: Kynurenine-3-hydroxylase Assay in the Rat Liver
The assay for kynurenine 3-hydroxylase was based on the enzymatic synthesis of tritiated water during the hydroxylation reaction. Radiolabeled water was quantified following selective adsorption of the isotopic substrate and its metabolite with activated charcoal.
Rat liver mitochondrial extract was used as enzymatic preparation for this assay.
The assay for kynurenine 3-hydroxylase activity was carried out at 37° C. for a time of 30 min. The reaction mixture of a total volume of […] was constituted of […] of suspended extract, 100 mM Tris/Cl^- buffer pH 8.1, 10 mM EDTA, 100 mM KCl, 0.8 mM NADPH, 0.025 mM L-kynurenine, […] L-(3,5-^3 H)Kynurenine (10 Ci/mmol) and […] of different concentration of inhibitor solutions. After the incubation the reaction was terminated by the addition of 1 mL of 7.5% (w/v) activated charcoal, vortexed and centrifugated for 7 min.
A […] aliquot of supernatant was counted by scintillation spectroscopy in 5 ml of liquid scintillation.

neuronal cell cultures = conditions: relatively low concentrations, prolonged period of time or in combination with glutamate; cited from earlier work
[3] = system: N-methyl-D-aspartate (NMDA) receptor; conditions: cited from earlier work
CNS = conditions: cited from earlier work
[4] = system: ionotropic excitatory aminoacid receptors; conditions: preferentially at glycine co-agonist site of the NMDA receptor; cited from earlier work

Structure (SMILES) | IC50 (kynurenine-3-hydroxylase [1]) | IC50 (kynurenine-3-hydroxylase [2]) | further results
O=C(O)/C(O)=C\C(=O)c1ccc(F)c(F)c1 [PNU 161219, (E)-2-hydroxy-4-(3',4'-difluorophenyl)-4-oxo-2-butenoic acid] | 0.44 µM | 1.2 µM | –
O=C(O)/C=C/C(=O)c1cccc(Cl)c1 [PNU 158390, (E)-4-(3'-chlorophenyl)-4-oxo-2-butenoic acid] | 20.4 µM | 21.9 µM | –
O=C(O)/C=C/C(=O)c1cccc([N+](=O)[O-])c1 [PNU 158389, (E)-4-(3'-nitrophenyl)-4-oxo-2-butenoic acid] | 16.6 µM | 30.4 µM | –
O=C(O)/C(O)=C\C(=O)c1cccc(Cl)c1 [PNU 161216, (E)-2-hydroxy-4-(3'-chlorophenyl)-4-oxo-2-butenoic acid] | 6.9 µM | 1.2 µM | –
O=C(O)/C=C/C(=O)c1ccc(Cl)c(Cl)c1 [PNU 157694, (E)-4-(3',4'-dichlorophenyl)-4-oxo-2-butenoic acid] | 0.9 µM | 10.4 µM | –
O=C(O)c1cccnc1C(=O)O [QUIN, quinolinic acid] | – | – | neurotoxicity in neuronal cell cultures (neuronal cell cultures): neurotoxic; activity at NMDA receptor [3]: highly selective agonist; in vivo convulsions and lesions (CNS; in vivo): produce convulsions and axon sparing lesions; effect when injected in the CNS (CNS): neurotoxin
O=C(O)C=C(Cc1ccccc1)C(=O)c1ccc(Cl)c(Cl)c1 [PNU 167535, 3-benzyl-4-(3',4'-dichlorophenyl)-4-oxo-2-butenoic acid] | – | 12.3 µM | –
CC(=CC(=O)O)C(=O)c1ccc(Cl)c(Cl)c1 [PNU 161213, 3-methyl-4-(3',4'-dichlorophenyl)-4-oxo-2-butenoic acid] | – | 26.2 µM | –
O=C(O)/C(O)=C\C(=O)c1cccc(F)c1 [PNU 161217, (E)-2-hydroxy-4-(3'-fluorophenyl)-4-oxo-2-butenoic acid] | 0.97 µM | 2.8 µM | –
O=C(O)/C=C/C(=O)c1cccc(F)c1 [PNU 158388, (E)-4-(3'-fluorophenyl)-4-oxo-2-butenoic acid] | 21.8 µM | 38.6 µM | –
O=C(O)/C=C/C(=O)c1ccc(F)c(F)c1 [PNU 157961, (E)-4-(3',4'-difluorophenyl)-4-oxo-2-butenoic acid] | 1.1 µM | 21.1 µM | –
COC(=O)/C(O)=C\C(=O)c1ccc(Cl)c(Cl)c1 [PNU 158775, Methyl-(E)-2-hydroxy-4-(3',4'-dichlorophenyl)-4-oxo-2-butenoate] | 0.95 µM | 6.9 µM | –
CCOC(=O)/C(O)=C\C(=O)c1ccc(Cl)c(Cl)c1 [PNU 161215, Ethyl-(E)-2-hydroxy-4-(3',4'-dichlorophenyl)-4-oxo-2-butenoate] | 2.01 µM | 1.9 µM | –
O=C(O)c1cc(=O)c2ccccc2[nH]1 [KYNA, kynurenic acid] | – | – | activity at ionotropic excitatory aminoacid receptors [4]: broad spectrum antagonist; prevention of excitotoxic neuronal damage evoked by QUIN (CNS; co-injected with QUIN): able to prevent the excitotoxic neuronal damage; effect when injected in the CNS (CNS): neuroprotective agent; anticonvulsant and neuroprotective properties (CNS; several animal models): anticonvulsant and neuroprotective properties
O=C(O)/C(O)=C\C(=O)c1ccc(Cl)cc1 [PNU 166909, (E)-2-hydroxy-4-(4'-chlorophenyl)-4-oxo-2-butenoic acid] | – | 8.9 µM | –
C/C(=C\C(=O)c1ccc(Cl)c(Cl)c1)C(=O)O [PNU 158785, (E)-2-methyl-4-(3',4'-dichlorophenyl)-4-oxo-2-butenoic acid] | 3.4 µM | 23.5 µM | –
O=C(O)/C(O)=C\C(=O)c1ccc(Cl)c(Cl)c1 [PNU 158776, (E)-2-hydroxy-4-(3',4'-dichlorophenyl)-4-oxo-2-butenoic acid] | 0.3 µM | 1.8 µM | –
